Experimental data taken from PubChem BioAssay (NCI).
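Method: 48-hour compound exposure of cells in 96-well plates, five concentrations, linear interpolation of endpoints. The concentration for full growth arrest is given as TGI.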

Columns and labels:
Assay in all cases: DTP human tumour cell line panel, 48 h
SN12C renal = test system: SN12C renal
NCI-H522 lung = test system: NCI-H522 lung
MOLT-4 leukemia = test system: MOLT-4 leukemia
UACC-62 melanoma = test system: UACC-62 melanoma
T-47D breast = test system: T-47D breast
HOP-92 NSCLC = test system: HOP-92 NSCLC
786-0 renal = test system: 786-0 renal
EKVX NSCLC = test system: EKVX NSCLC
OVCAR-5 ovarian = test system: OVCAR-5 ovarian
U251 CNS = test system: U251 CNS
SR leukemia = test system: SR leukemia
OVCAR-8 ovarian = test system: OVCAR-8 ovarian
OVCAR-3 ovarian = test system: OVCAR-3 ovarian
SF-539 CNS = test system: SF-539 CNS
HCT-15 colon = test system: HCT-15 colon
MCF7 breast = test system: MCF7 breast
NCI-H23 lung = test system: NCI-H23 lung
A549 NSCLC = test system: A549 NSCLC
MDA-MB-231 breast = test system: MDA-MB-231 breast
ACHN renal = test system: ACHN renal
DU-145 prostate = test system: DU-145 prostate
HCT-116 colon = test system: HCT-116 colon
HCC-2998 colon = test system: HCC-2998 colon
SNB-75 CNS = test system: SNB-75 CNS
LOX IMVI melanoma = test system: LOX IMVI melanoma
NCI/ADR-RES ovarian = test system: NCI/ADR-RES ovarian
SF-268 CNS = test system: SF-268 CNS
HS 578T breast = test system: HS 578T breast
UACC-257 melanoma = test system: UACC-257 melanoma
IGROV1 ovarian = test system: IGROV1 ovarian
OVCAR-4 ovarian = test system: OVCAR-4 ovarian
M14 melanoma = test system: M14 melanoma
SK-OV-3 ovarian = test system: SK-OV-3 ovarian
NCI-H460 lung = test system: NCI-H460 lung
TK-10 renal = test system: TK-10 renal
SW-620 colon = test system: SW-620 colon
KM12 colon = test system: KM12 colon
MDA-MB-435 = test system: MDA-MB-435
SK-MEL-2 melanoma = test system: SK-MEL-2 melanoma
COLO 205 colon = test system: COLO 205 colon
MDA-N = test system: MDA-N
SNB-19 CNS = test system: SNB-19 CNS
SF-295 CNS = test system: SF-295 CNS
SK-MEL-28 melanoma = test system: SK-MEL-28 melanoma
CAKI-1 renal = test system: CAKI-1 renal
UO-31 renal = test system: UO-31 renal
MALME-3M melanoma = test system: MALME-3M melanoma
RPMI-8226 leukemia = test system: RPMI-8226 leukemia
A498 renal = test system: A498 renal
CCRF-CEM leukemia = test system: CCRF-CEM leukemia
HT29 colon = test system: HT29 colon
HL-60(TB) leukemia = test system: HL-60(TB) leukemia
HOP-62 NSCLC = test system: HOP-62 NSCLC
NCI-H226 lung = test system: NCI-H226 lung
SK-MEL-5 melanoma = test system: SK-MEL-5 melanoma
PC-3 prostate = test system: PC-3 prostate
K-562 leukemia = test system: K-562 leukemia

Measured: TGI

Cc1ccc(-c2nnc(CCCCCCCCc3nnc(-c4ccc(C)cc4O)n3N)n2N)c(O)c1
not listed: CCRF-CEM leukemia | HT29 colon | HL-60(TB) leukemia | HOP-62 NSCLC | NCI-H226 lung | SK-MEL-5 melanoma | PC-3 prostate | K-562 leukemia
> 100 µM: all other assays above

Nc1ccc(Nc2cc(=O)[nH]c(=O)[nH]2)cc1
not listed: HOP-92 NSCLC | OVCAR-5 ovarian | SNB-75 CNS | M14 melanoma | SK-MEL-2 melanoma | COLO 205 colon | UO-31 renal
> 100 µM: all other assays above
